{"source": "patent US8431704B2", "about": "“Quinoline or isoquinoline substituted P2X7 antagonists” (Janssen Pharmaceutica NV, priority 2008, dated 2013)", "target": "T1, hP2X7 (Homo sapiens, UniProt Q99572)", "T1 construct": "expressed in transfected cells; host or cells: 1321N1 astrocytoma cells", "T1 sequence (Q99572 1-595)": "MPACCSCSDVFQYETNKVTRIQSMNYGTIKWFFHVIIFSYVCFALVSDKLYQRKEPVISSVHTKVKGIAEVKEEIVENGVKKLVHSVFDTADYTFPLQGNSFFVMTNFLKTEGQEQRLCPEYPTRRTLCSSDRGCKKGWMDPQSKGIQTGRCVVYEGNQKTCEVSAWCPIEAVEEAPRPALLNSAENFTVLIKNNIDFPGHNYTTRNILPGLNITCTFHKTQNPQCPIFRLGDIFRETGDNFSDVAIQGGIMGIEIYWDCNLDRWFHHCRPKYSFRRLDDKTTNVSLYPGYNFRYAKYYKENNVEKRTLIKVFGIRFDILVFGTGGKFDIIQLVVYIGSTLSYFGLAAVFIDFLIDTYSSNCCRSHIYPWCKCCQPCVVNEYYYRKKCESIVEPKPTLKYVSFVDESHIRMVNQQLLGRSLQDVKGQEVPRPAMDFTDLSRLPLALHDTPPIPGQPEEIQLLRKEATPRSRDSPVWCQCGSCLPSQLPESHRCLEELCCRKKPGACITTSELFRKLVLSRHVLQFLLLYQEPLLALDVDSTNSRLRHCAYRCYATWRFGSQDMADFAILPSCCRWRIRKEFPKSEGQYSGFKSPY", "assay": "P2X7 antagonism: ligand-induced Ca2+ flux in 1321N1 astrocytoma cells overexpressing hP2X7", "format": "cell-based", "conditions": "pIC50 = -log(IC50), read-out: hP2RX7pIC50 (mean pIC50 values) (converted)", "procedure,_shortened": "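Intracellular Ca2+ tracked with a quenched Ca2+-sensitive fluorescent dye kit (excitation 488 nm, emission 510-560 nm) in 1321N1 cells, before and after agonist addition in presence of antagonist. Effects expressed as % control and IC50.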"}
{"smiles": "O=C(NCC(c1cnc(C(F)(F)F)nc1)N1CCOCC1)c1cccc2nc(NCC3CCCC3)ccc12", "note": "(stereo not shown) [Compound 275]", "values": [{"measurement": "IC50", "result": 70.8, "unit": "nM"}]}
{"smiles": "CC(C)(C)C1CCN(c2ccc3c(C(=O)NCC(c4cnc(C(F)(F)F)nc4)N4CCOCC4)cccc3n2)CC1", "note": "(stereo not shown) [Compound 276]", "values": [{"measurement": "IC50", "result": 813, "unit": "nM"}]}
{"smiles": "CC(C)OC1CCN(c2ccc3c(C(=O)NCC(c4cnc(C(F)(F)F)nc4)N4CCOCC4)cccc3n2)CC1", "note": "(stereo not shown) [Compound 277]", "values": [{"measurement": "IC50", "result": 46.8, "unit": "nM"}]}
{"smiles": "COCC(C)Nc1ccc2c(C(=O)NCC(c3cnc(C(F)(F)F)nc3)N3CCOCC3)cccc2n1", "note": "(stereo not shown) [Compound 278]", "values": [{"measurement": "IC50", "result": 87.1, "unit": "nM"}]}
{"smiles": "CCN(CC)c1ccc2c(C(=O)NCC(c3cnc(C(F)(F)F)nc3)N3CCOCC3)cccc2n1", "note": "(stereo not shown) [Compound 279]", "values": [{"measurement": "IC50", "result": 77.6, "unit": "nM"}]}
{"smiles": "CC(C)CN1CCN(c2ccc3c(C(=O)NCC(c4cnc(C(F)(F)F)nc4)N4CCOCC4)cccc3n2)CC1", "note": "(stereo not shown) [Compound 280]", "values": [{"measurement": "IC50", "result": 95.5, "unit": "nM"}]}
{"smiles": "COCCN1CCN(c2ccc3c(C(=O)NCC(c4cnc(C(F)(F)F)nc4)N4CCOCC4)cccc3n2)CC1", "note": "(stereo not shown) [Compound 281]", "values": [{"measurement": "IC50", "result": 75.9, "unit": "nM"}]}
{"smiles": "CCc1ncc(C(CNC(=O)c2cccc3nc(N4CCCC4)ccc23)N2CCC(F)(F)CC2)cn1", "note": "(stereo not shown) [Compound 282]", "values": [{"measurement": "IC50", "result": 75.9, "unit": "nM"}]}
{"smiles": "O=C(NCC(c1cnc(-c2ccccc2)nc1)N1CCC(F)(F)CC1)c1cccc2nc(N3CCCC3)ccc12", "note": "(stereo not shown) [Compound 283]", "values": [{"measurement": "IC50", "result": 115, "unit": "nM"}]}
{"smiles": "CC(C)Oc1ncc(C(CNC(=O)c2cccc3nc(N4CCCC4)ccc23)N2CCOCC2)cn1", "note": "(stereo not shown) [Compound 284]", "values": [{"measurement": "IC50", "result": 67.6, "unit": "nM"}]}
{"smiles": "CC(C)N1CCN(c2ccc3c(C(=O)NCC(c4cnc(N5CCCC5)nc4)N4CCOCC4)cccc3n2)CC1", "note": "(stereo not shown) [Compound 285]", "values": [{"measurement": "IC50", "result": 158, "unit": "nM"}]}
{"smiles": "COc1ncc(C(CNC(=O)c2cccc3nc(N4CCCC4)ccc23)N2CCC(F)(F)CC2)cn1", "note": "(stereo not shown) [Compound 286]", "values": [{"measurement": "IC50", "result": 38, "unit": "nM"}]}
{"smiles": "O=C(NCC(c1cnc(N2CCNCC2)nc1)N1CCC(F)(F)CC1)c1cccc2nc(N3CCOCC3)ccc12", "note": "(stereo not shown) [Compound 287]", "values": [{"measurement": "IC50", "result": 105, "unit": "nM"}]}
{"smiles": "CC(C)c1ncc(C(CNC(=O)c2cccc3nc(N4CCN(C(C)C)CC4)ccc23)N2CCOCC2)cn1", "note": "(stereo not shown) [Compound 288]", "values": [{"measurement": "IC50", "result": 135, "unit": "nM"}]}
{"smiles": "CC(C)Oc1ncc(C(CNC(=O)c2cccc3nc(N4CCN(C(C)C)CC4)ccc23)N2CCOCC2)cn1", "note": "(stereo not shown) [Compound 289]", "values": [{"measurement": "IC50", "result": 64.6, "unit": "nM"}]}
{"smiles": "CCc1ncc(C(CNC(=O)c2cccc3nc(N4CCCC4)ccc23)N2CCOCC2)cn1", "note": "(stereo not shown) [Compound 290]", "values": [{"measurement": "IC50", "result": 135, "unit": "nM"}]}
{"smiles": "CC(C)N1CCN(c2ccc3c(C(=O)NCC(c4cnc(OCC5CC5)nc4)N4CCC(F)(F)CC4)cccc3n2)CC1", "note": "(stereo not shown) [Compound 291]", "values": [{"measurement": "IC50", "result": 46.8, "unit": "nM"}]}
{"smiles": "CCc1ncc(C(CNC(=O)c2cccc3nc(N4CCN(C(C)C)CC4)ccc23)N2CCC(F)(F)CC2)cn1", "note": "(stereo not shown) [Compound 292]", "values": [{"measurement": "IC50", "result": 115, "unit": "nM"}]}
{"smiles": "O=C(NCC(c1cnc(C2CCCC2)nc1)N1CCC(F)(F)CC1)c1cccc2nc(NCC3CC3)ccc12", "note": "(stereo not shown) [Compound 293]", "values": [{"measurement": "IC50", "result": 105, "unit": "nM"}]}
{"smiles": "O=C(NCC(c1cnc(OC2CCC2)nc1)N1CCC(F)(F)CC1)c1cccc2nc(NCC3CC3)ccc12", "note": "(stereo not shown) [Compound 294]", "values": [{"measurement": "IC50", "result": 67.6, "unit": "nM"}]}
{"smiles": "CCc1ncc(C(CNC(=O)c2cccc3nc(N4CCN(C(C)C)CC4)ccc23)N2CCOCC2)cn1", "note": "(stereo not shown) [Compound 295]", "values": [{"measurement": "IC50", "result": 209, "unit": "nM"}]}
{"smiles": "CCc1ncc(C(CNC(=O)c2cccc3nc(NCC4CC4)ccc23)N2CCOCC2)cn1", "note": "(stereo not shown) [Compound 296]", "values": [{"measurement": "IC50", "result": 123, "unit": "nM"}]}
{"smiles": "CC(C)N1CCN(c2ccc3c(C(=O)NCC(c4cncnc4)N4CCC(F)(F)CC4)cccc3n2)CC1", "note": "(stereo not shown) [Compound 297]", "values": [{"measurement": "IC50", "result": 32.4, "unit": "nM"}]}
{"smiles": "CCOc1ncc(C(CNC(=O)c2cccc3nc(N4CCN(C(C)C)CC4)ccc23)N2CCC(F)(F)CC2)cn1", "note": "(stereo not shown) [Compound 298]", "values": [{"measurement": "IC50", "result": 45.7, "unit": "nM"}]}
{"smiles": "CC(C)c1ncc(C(CNC(=O)c2cccc3nc(N4CCN(C(C)C)CC4)ccc23)N2CCC(F)(F)CC2)cn1", "note": "(stereo not shown) [Compound 299]", "values": [{"measurement": "IC50", "result": 110, "unit": "nM"}]}
{"smiles": "CC(C)N1CCN(c2ccc3c(C(=O)NCC(c4cnc(OC5CCC5)nc4)N4CCC(F)(F)CC4)cccc3n2)CC1", "note": "(stereo not shown) [Compound 300]", "values": [{"measurement": "IC50", "result": 37.2, "unit": "nM"}]}
{"smiles": "O=C(NCC(c1cnc(N2CCNCC2)nc1)N1CCC(F)(F)CC1)c1cccc2nc(N3CCCC3)ccc12", "note": "(stereo not shown) [Compound 301]", "values": [{"measurement": "IC50", "result": 166, "unit": "nM"}]}
{"smiles": "CC(C)N1CCN(c2ccc3c(C(=O)NCC(c4cnc(N)nc4)N4CCC(F)(F)CC4)cccc3n2)CC1", "note": "(stereo not shown) [Compound 302]", "values": [{"measurement": "IC50", "result": 81.3, "unit": "nM"}]}
